# Measurements published in patent US6984664B2, “Tertiary amino compounds having opioid receptor affinity” (Euro-Celtique, S.A., priority 1999, dated 2006).
# Columns and labels:
# Type in all cases: binding
# kappa opioid receptor = kappa opioid receptor (Homo sapiens, UniProt P41145); assay: Affinity at the k receptor ([35S]GTPγS membrane assay); conditions: opioid receptor membranes, 30 min room temperature, read-out: calc Ki (nM) k
# Procedure: (§1) Affinity at the μ, k and δ receptors for preferred compounds was obtained according to the following assays:
# (§2) Mu, kappa or delta opioid receptor membrane solution was prepared by sequentially adding final concentrations of 0.075 μg/μl of the desired membrane protein, 10 μg/ml saponin, 3 μM GDP and 0.20 nM [^35S]GTPγS to binding buffer (100 mM NaCl, 10 mM MgCl2, 20 mM HEPES, pH 7.4) on ice. The prepared membrane solution (190 μl/well) was transferred to 96-shallow well polypropylene plates containing 10 μl of 20× concentrated stock solutions of agonist prepared in DMSO. Plates were incubated for 30 min at room temperature with shaking. Reactions were terminated by rapid filtration onto 96-well Unifilter GF/B filter plates (Packard) using a 96-well tissue harvester (Brandel) and followed by three filtration washes with 200 μl ice-cold binding buffer (10 mM NaH2PO4, 10 mM Na2HPO4, pH 7.4). Filter plates were subsequently dried at 50° C. for 2–3 hours. Fifty μl/well scintillation cocktail (MicroScint20, Packard) was added and plates were counted in a Packard Top-Count for 1 min/well.
# (§3) Data were analyzed using the curve fitting functions in GraphPad PRISM™, v.
# Mu opioid receptor = Mu opioid receptor (Homo sapiens, UniProt P35372); assay: Affinity at the μ receptor ([35S]GTPγS membrane assay); conditions: opioid receptor membranes, 30 min room temperature, read-out: calc Ki (nM) μ
# Mu opioid receptor, sequence (P35372 whole entry): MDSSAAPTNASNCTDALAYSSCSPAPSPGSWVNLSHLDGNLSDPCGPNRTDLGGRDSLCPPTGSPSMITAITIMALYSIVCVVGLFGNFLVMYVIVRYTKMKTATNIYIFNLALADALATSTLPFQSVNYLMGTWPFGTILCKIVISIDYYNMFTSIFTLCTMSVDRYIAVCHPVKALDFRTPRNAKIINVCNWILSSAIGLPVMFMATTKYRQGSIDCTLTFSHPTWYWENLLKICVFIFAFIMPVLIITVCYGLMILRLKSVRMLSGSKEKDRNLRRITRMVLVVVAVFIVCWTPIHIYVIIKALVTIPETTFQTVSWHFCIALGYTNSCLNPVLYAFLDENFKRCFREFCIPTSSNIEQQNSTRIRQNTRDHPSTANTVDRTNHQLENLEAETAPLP
# Procedure: as §1, §2, §3
# delta opioid receptor = delta opioid receptor (Homo sapiens, UniProt P41143); assay: Affinity at the δ receptor ([35S]GTPγS membrane assay); conditions: opioid receptor membranes, 30 min room temperature, read-out: calc Ki (nM) δ2
# delta opioid receptor, sequence (P41143 whole entry): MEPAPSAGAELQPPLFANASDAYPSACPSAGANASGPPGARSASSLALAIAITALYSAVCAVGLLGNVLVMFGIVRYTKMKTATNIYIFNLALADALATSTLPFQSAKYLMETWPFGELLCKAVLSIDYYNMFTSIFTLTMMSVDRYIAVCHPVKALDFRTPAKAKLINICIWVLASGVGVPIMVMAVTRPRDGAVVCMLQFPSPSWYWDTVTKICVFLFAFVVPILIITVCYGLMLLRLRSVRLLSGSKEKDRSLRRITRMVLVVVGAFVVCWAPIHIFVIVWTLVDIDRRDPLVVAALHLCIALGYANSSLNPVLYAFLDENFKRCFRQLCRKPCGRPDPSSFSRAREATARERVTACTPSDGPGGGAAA
# Procedure: as §1, §2, §3
# kappa opioid receptor, sequence (P41145 whole entry): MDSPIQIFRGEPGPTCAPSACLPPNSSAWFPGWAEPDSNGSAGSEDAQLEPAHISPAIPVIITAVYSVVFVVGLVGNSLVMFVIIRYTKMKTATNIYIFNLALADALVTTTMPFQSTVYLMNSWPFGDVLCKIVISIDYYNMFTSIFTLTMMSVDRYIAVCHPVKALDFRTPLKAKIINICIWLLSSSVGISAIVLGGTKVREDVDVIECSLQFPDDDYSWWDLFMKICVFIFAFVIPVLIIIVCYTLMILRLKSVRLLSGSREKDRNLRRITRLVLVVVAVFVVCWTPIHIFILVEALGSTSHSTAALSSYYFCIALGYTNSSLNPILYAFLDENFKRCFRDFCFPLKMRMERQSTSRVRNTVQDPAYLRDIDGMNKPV
structure (smiles),measurement,setting,value
CCCCN(CCCC)CCN(Cc1ccccc1)C(=O)Cc1ccccc1 [1-[1-benzyl-1-(2-phenyl-1-oxo-ethyl)-amino]-2-dibutylamino-ethyl],Ki,kappa opioid receptor,3500 nM
same,Ki,Mu opioid receptor,40 nM
same,Ki,delta opioid receptor,> 10000 nM
